Reference: PubChem BioAssay (NCI)
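Assay format: 96-well plates, 48-hour exposure. TGI: concentration producing complete growth inhibition.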

Legend:
Assay in all cases: DTP human tumour cell line panel, 48 h
LOX IMVI melanoma = tested on: LOX IMVI melanoma
K-562 leukemia = tested on: K-562 leukemia
SN12C renal = tested on: SN12C renal
COLO 205 colon = tested on: COLO 205 colon
HT29 colon = tested on: HT29 colon
SW-620 colon = tested on: SW-620 colon
A498 renal = tested on: A498 renal
TK-10 renal = tested on: TK-10 renal
786-0 renal = tested on: 786-0 renal
SF-539 CNS = tested on: SF-539 CNS
NCI-H460 lung = tested on: NCI-H460 lung
BT-549 breast = tested on: BT-549 breast
CAKI-1 renal = tested on: CAKI-1 renal
OVCAR-3 ovarian = tested on: OVCAR-3 ovarian
HS 578T breast = tested on: HS 578T breast
SF-295 CNS = tested on: SF-295 CNS
DU-145 prostate = tested on: DU-145 prostate
KM12 colon = tested on: KM12 colon
SK-OV-3 ovarian = tested on: SK-OV-3 ovarian
MDA-N = tested on: MDA-N
EKVX NSCLC = tested on: EKVX NSCLC
NCI-H522 lung = tested on: NCI-H522 lung
MALME-3M melanoma = tested on: MALME-3M melanoma
SK-MEL-5 melanoma = tested on: SK-MEL-5 melanoma
M14 melanoma = tested on: M14 melanoma
ACHN renal = tested on: ACHN renal
SNB-19 CNS = tested on: SNB-19 CNS
MDA-MB-231 breast = tested on: MDA-MB-231 breast
PC-3 prostate = tested on: PC-3 prostate
IGROV1 ovarian = tested on: IGROV1 ovarian
HOP-92 NSCLC = tested on: HOP-92 NSCLC
UACC-62 melanoma = tested on: UACC-62 melanoma
SR leukemia = tested on: SR leukemia
HOP-62 NSCLC = tested on: HOP-62 NSCLC
OVCAR-5 ovarian = tested on: OVCAR-5 ovarian
OVCAR-8 ovarian = tested on: OVCAR-8 ovarian
HL-60(TB) leukemia = tested on: HL-60(TB) leukemia
OVCAR-4 ovarian = tested on: OVCAR-4 ovarian
SK-MEL-28 melanoma = tested on: SK-MEL-28 melanoma
CCRF-CEM leukemia = tested on: CCRF-CEM leukemia
MOLT-4 leukemia = tested on: MOLT-4 leukemia
MCF7 breast = tested on: MCF7 breast
HCT-15 colon = tested on: HCT-15 colon
SK-MEL-2 melanoma = tested on: SK-MEL-2 melanoma
SF-268 CNS = tested on: SF-268 CNS
A549 NSCLC = tested on: A549 NSCLC
HCT-116 colon = tested on: HCT-116 colon
MDA-MB-435 = tested on: MDA-MB-435
RXF 393 renal = tested on: RXF 393 renal
NCI-H23 lung = tested on: NCI-H23 lung
UACC-257 melanoma = tested on: UACC-257 melanoma
T-47D breast = tested on: T-47D breast
RPMI-8226 leukemia = tested on: RPMI-8226 leukemia
NCI/ADR-RES ovarian = tested on: NCI/ADR-RES ovarian
UO-31 renal = tested on: UO-31 renal
NCI-H226 lung = tested on: NCI-H226 lung
U251 CNS = tested on: U251 CNS
HCC-2998 colon = tested on: HCC-2998 colon
SNB-75 CNS = tested on: SNB-75 CNS

NC(N)=N/N=C/c1c(-c2ccc(N)cc2)nc2sccn12
TGI (LOX IMVI melanoma): > 100 µM
TGI (K-562 leukemia): 66.1 µM
TGI (SN12C renal): 48.7 µM
TGI (COLO 205 colon): 57.8 µM
TGI (HT29 colon): 56.8 µM
TGI (SW-620 colon): 68.2 µM
TGI (A498 renal): 68.2 µM
TGI (TK-10 renal): 40.9 µM
TGI (786-0 renal): 62 µM
TGI (SF-539 CNS): 63.9 µM
TGI (NCI-H460 lung): 76.8 µM
TGI (BT-549 breast): > 100 µM
TGI (CAKI-1 renal): > 100 µM
TGI (OVCAR-3 ovarian): 67.3 µM
TGI (HS 578T breast): > 100 µM
TGI (SF-295 CNS): 55.6 µM
TGI (DU-145 prostate): 35.5 µM
TGI (KM12 colon): > 100 µM
TGI (SK-OV-3 ovarian): 64 µM
TGI (MDA-N): 60.1 µM
TGI (EKVX NSCLC): 61.1 µM
TGI (NCI-H522 lung): 76 µM
TGI (MALME-3M melanoma): > 100 µM
TGI (SK-MEL-5 melanoma): > 100 µM
TGI (M14 melanoma): 57.9 µM
TGI (ACHN renal): 77.9 µM
TGI (SNB-19 CNS): 69.1 µM
TGI (MDA-MB-231 breast): 48.4 µM
TGI (PC-3 prostate): 58.7 µM
TGI (IGROV1 ovarian): > 100 µM
TGI (HOP-92 NSCLC): > 100 µM
TGI (UACC-62 melanoma): > 100 µM
TGI (SR leukemia): 89.3 µM
TGI (HOP-62 NSCLC): 79 µM
TGI (OVCAR-5 ovarian): 46.8 µM
TGI (OVCAR-8 ovarian): > 100 µM
TGI (HL-60(TB) leukemia): 47.9 µM
TGI (OVCAR-4 ovarian): > 100 µM
TGI (SK-MEL-28 melanoma): > 100 µM
TGI (CCRF-CEM leukemia): > 100 µM
TGI (MOLT-4 leukemia): 73.9 µM
TGI (MCF7 breast): > 100 µM
TGI (HCT-15 colon): > 100 µM
TGI (SK-MEL-2 melanoma): 81.8 µM
TGI (SF-268 CNS): > 100 µM
TGI (A549 NSCLC): 47.6 µM
TGI (HCT-116 colon): 59.2 µM
TGI (MDA-MB-435): 94 µM
TGI (RXF 393 renal): 39.9 µM
TGI (NCI-H23 lung): 95.2 µM
TGI (UACC-257 melanoma): > 100 µM
TGI (T-47D breast): 90.3 µM
TGI (RPMI-8226 leukemia): 99.2 µM
TGI (NCI/ADR-RES ovarian): > 100 µM
TGI (UO-31 renal): 39.2 µM
TGI (NCI-H226 lung): > 100 µM
TGI (U251 CNS): 64.1 µM

COc1cc2c(c3oc4c(O)cccc4c(=O)c13)CC(C(C)(O)CO)O2 (stereo not given)
TGI (LOX IMVI melanoma): > 100 µM
TGI (K-562 leukemia): > 100 µM
TGI (SN12C renal): > 100 µM
TGI (COLO 205 colon): > 100 µM
TGI (HT29 colon): > 100 µM
TGI (SW-620 colon): > 100 µM
TGI (TK-10 renal): > 100 µM
TGI (786-0 renal): > 100 µM
TGI (SF-539 CNS): > 100 µM
TGI (NCI-H460 lung): > 100 µM
TGI (BT-549 breast): > 100 µM
TGI (CAKI-1 renal): > 100 µM
TGI (OVCAR-3 ovarian): > 100 µM
TGI (HS 578T breast): > 100 µM
TGI (SF-295 CNS): > 100 µM
TGI (DU-145 prostate): > 100 µM
TGI (MDA-N): > 100 µM
TGI (EKVX NSCLC): > 100 µM
TGI (NCI-H522 lung): > 100 µM
TGI (MALME-3M melanoma): > 100 µM
TGI (SK-MEL-5 melanoma): > 100 µM
TGI (M14 melanoma): > 100 µM
TGI (HCC-2998 colon): > 100 µM
TGI (ACHN renal): > 100 µM
TGI (SNB-19 CNS): > 100 µM
TGI (MDA-MB-231 breast): > 100 µM
TGI (PC-3 prostate): > 100 µM
TGI (IGROV1 ovarian): > 100 µM
TGI (HOP-92 NSCLC): > 100 µM
TGI (UACC-62 melanoma): > 100 µM
TGI (SR leukemia): > 100 µM
TGI (HOP-62 NSCLC): > 100 µM
TGI (OVCAR-5 ovarian): > 100 µM
TGI (OVCAR-8 ovarian): > 100 µM
TGI (HL-60(TB) leukemia): > 100 µM
TGI (SK-MEL-28 melanoma): > 100 µM
TGI (CCRF-CEM leukemia): > 100 µM
TGI (MOLT-4 leukemia): 62.2 µM
TGI (MCF7 breast): 70.8 µM
TGI (HCT-15 colon): > 100 µM
TGI (SK-MEL-2 melanoma): > 100 µM
TGI (SF-268 CNS): > 100 µM
TGI (A549 NSCLC): > 100 µM
TGI (HCT-116 colon): > 100 µM
TGI (MDA-MB-435): > 100 µM
TGI (RXF 393 renal): 79.8 µM
TGI (NCI-H23 lung): > 100 µM
TGI (UACC-257 melanoma): > 100 µM
TGI (T-47D breast): > 100 µM
TGI (RPMI-8226 leukemia): > 100 µM
TGI (NCI/ADR-RES ovarian): > 100 µM
TGI (UO-31 renal): > 100 µM
TGI (NCI-H226 lung): > 100 µM
TGI (U251 CNS): > 100 µM

O=C1C=CC(=O)c2c1ccc1c3ccccc3n(CCCCCCCCCCCCn3c4ccccc4c4ccc5c(c43)C(=O)C=CC5=O)c21
TGI (LOX IMVI melanoma): > 100 µM
TGI (K-562 leukemia): > 100 µM
TGI (SN12C renal): > 100 µM
TGI (COLO 205 colon): > 100 µM
TGI (HT29 colon): > 100 µM
TGI (SW-620 colon): > 100 µM
TGI (A498 renal): > 100 µM
TGI (TK-10 renal): > 100 µM
TGI (786-0 renal): > 100 µM
TGI (SF-539 CNS): > 100 µM
TGI (NCI-H460 lung): > 100 µM
TGI (BT-549 breast): > 100 µM
TGI (CAKI-1 renal): > 100 µM
TGI (OVCAR-3 ovarian): > 100 µM
TGI (HS 578T breast): > 100 µM
TGI (SF-295 CNS): > 100 µM
TGI (DU-145 prostate): > 100 µM
TGI (KM12 colon): > 100 µM
TGI (SK-OV-3 ovarian): > 100 µM
TGI (MDA-N): > 100 µM
TGI (EKVX NSCLC): > 100 µM
TGI (NCI-H522 lung): > 100 µM
TGI (MALME-3M melanoma): > 100 µM
TGI (SK-MEL-5 melanoma): > 100 µM
TGI (M14 melanoma): > 100 µM
TGI (HCC-2998 colon): > 46.4 µM
TGI (ACHN renal): > 100 µM
TGI (SNB-19 CNS): > 100 µM
TGI (MDA-MB-231 breast): > 100 µM
TGI (PC-3 prostate): > 100 µM
TGI (IGROV1 ovarian): > 100 µM
TGI (HOP-92 NSCLC): > 100 µM
TGI (UACC-62 melanoma): > 100 µM
TGI (SR leukemia): > 100 µM
TGI (HOP-62 NSCLC): > 100 µM
TGI (OVCAR-5 ovarian): > 100 µM
TGI (OVCAR-8 ovarian): > 100 µM
TGI (HL-60(TB) leukemia): > 91.3 µM
TGI (OVCAR-4 ovarian): > 100 µM
TGI (SK-MEL-28 melanoma): > 100 µM
TGI (CCRF-CEM leukemia): 74.1 µM
TGI (MOLT-4 leukemia): > 90.5 µM
TGI (MCF7 breast): > 100 µM
TGI (HCT-15 colon): > 100 µM
TGI (SK-MEL-2 melanoma): > 100 µM
TGI (SF-268 CNS): > 100 µM
TGI (A549 NSCLC): > 100 µM
TGI (HCT-116 colon): > 100 µM
TGI (MDA-MB-435): > 100 µM
TGI (RXF 393 renal): > 100 µM
TGI (NCI-H23 lung): > 100 µM
TGI (UACC-257 melanoma): > 100 µM
TGI (T-47D breast): > 100 µM
TGI (RPMI-8226 leukemia): > 100 µM
TGI (NCI/ADR-RES ovarian): > 100 µM
TGI (SNB-75 CNS): > 100 µM
TGI (UO-31 renal): > 100 µM
TGI (NCI-H226 lung): > 100 µM
TGI (U251 CNS): > 100 µM
